{"source": "patent US20250197384A1", "about": "“AZOLE COMPOUND AND ANTIFUNGAL AGENT” (NIHON NOHYAKU CO., LTD., priority 2022, published 2025)", "key": {"[1]": {"tested_on": "Candida albicans NBRC1270", "experiment": "In vitro anti-Candida activity test", "assay_type": "cell-based", "details": "for C. albicans (MIC): 80% or more inhibition, unit inferred; for minimum inhibitory concentration against various fungi (MIC) C. albicans: Table 22, 35° C. for 24 hr, alamar Blue, minimum concentration showing 80% or more inhibition", "experimental": "Candida albicans NBRC1270 was used as the strain. The test fungi were cultured on a Sabouraud dextrose agar slant medium at 35° C. for 24 hr, and then suspended in sterilized saline. The number of cells in this suspension was counted using a hemocytometer, and the same suspension was adjusted to a cell concentration of 1.5×10^5 cells/mL, and this was used as an inoculum. Each compound was dissolved in dimethyl sulfoxide to a predetermined concentration, and diluted 50-fold with 0.165 M MOPS buffered RPMI 1640 liquid medium, and each diluted solution was dispensed into a 96-well microplate by each 100 μL. The inoculum was diluted 50-fold with 0.165 M MOPS buffered RPMI 1640 liquid medium containing 20% alamar Blue™, and the diluted solution was inoculated into the 96-well microplate containing the compound by each 100 μL (final inoculum amount 1.5×10^3 cells/mL). After static culture at 35° C. for 24 hr, the degree of color development of the alamar Blue™ was measured using a microplate reader (O.D. 570-595 nm), and the minimum concentration showing 80% or more inhibition was defined as the minimum inhibitory concentration (MIC)."}, "[2]": {"tested_on": "Aspergillus fumigatus TIMM0063", "experiment": "In vitro anti-Aspergillus activity test", "assay_type": "cell-based", "details": "for A. fumigatus (MIC): 80% or more inhibition, unit inferred; for minimum inhibitory concentration against various fungi (MIC) A. fumigatus: Table 22, 35° C. for 48 hr, alamar Blue, minimum concentration showing 80% or more inhibition", "experimental": "Aspergillus fumigatus TIMM0063 was used as the strain. The test fungi were cultured on a Potato dextrose agar slant medium at 35° C. for 4 days, and then sterilized saline containing 0.1% (v/v) Tween 80 was added to release the conidia. This conidial suspension was filtered through sterile gauze, and the number of conidia was counted using a hemocytometer. The same solution was adjusted to a conidial concentration of 1×10^6 conidia/mL, and this was used as an inoculum. Each compound was dissolved in dimethyl sulfoxide to a predetermined concentration, and diluted 50-fold with 0.165 M MOPS buffered RPMI 1640 liquid medium, and each diluted solution was dispensed into a 96-well microplate by each 100 μL. The inoculum was diluted 50-fold with 0.165 M MOPS buffered RPMI 1640 liquid medium containing 20% alamar Blue™, and the diluted solution was inoculated into the 96-well microplate containing the compound by each 100 μL (final inoculum amount 1.0×10^4 conidia/mL). After static culture at 35° C. for 48 hr, the degree of color development of the alamar Blue™ was measured using a microplate reader (O.D. 570-595 nm), and the minimum concentration showing 80% or more inhibition was defined as the minimum inhibitory concentration (MIC)."}}, "data": [{"molecule": "CCCON=Cc1cnc(C2CSC(=C(C#N)n3cncn3)S2)c(F)c1", "note": "(racemic) [compound 144]", "values": [{"measurement": "C. albicans (MIC)", "setting": "[1]; Table 24, 35° C. for 24 hr", "result": 10, "unit": "ng/mL"}, {"measurement": "A. fumigatus (MIC)", "setting": "[2]; Table 24, 35° C. for 48 hr", "result": 5, "unit": "ng/mL"}]}, {"molecule": "N#C/C(=C1/SCC(c2ncc(NC(=O)OCc3ccccc3)cc2F)S1)n1cncn1", "note": "(centres unmarked) [compound 13]", "values": [{"measurement": "minimum inhibitory concentration against various fungi (MIC) C. albicans", "setting": "[1]", "result": 2.5, "unit": "ng/mL"}, {"measurement": "minimum inhibitory concentration against various fungi (MIC) A. fumigatus", "setting": "[2]", "result": 5, "unit": "ng/mL"}]}, {"molecule": "N#C/C(=C1/SCC(c2ncc(NC(=O)OCc3ccc(F)cc3)cc2Cl)S1)n1cncn1", "note": "(racemic) [compound 89]", "values": [{"measurement": "C. albicans (MIC)", "setting": "[1]; Table 23, 35° C. for 24 hr", "result": 2.5, "unit": "ng/mL"}, {"measurement": "A. fumigatus (MIC)", "setting": "[2]; Table 23, 35° C. for 48 hr", "result": 10, "unit": "ng/mL"}]}, {"molecule": "N#C/C(=C1/SCC(c2ncc(NC(=O)OCc3ccccc3F)cc2Cl)S1)n1cncn1", "note": "(racemic) [compound 99]", "values": [{"measurement": "C. albicans (MIC)", "setting": "[1]; Table 23, 35° C. for 24 hr", "result": 2.5, "unit": "ng/mL"}, {"measurement": "A. fumigatus (MIC)", "setting": "[2]; Table 23, 35° C. for 48 hr", "result": 5, "unit": "ng/mL"}]}, {"molecule": "CCCOC(=O)Nc1cnc(C2CS/C(=C(/C#N)n3cncn3)S2)c(Cl)c1", "note": "(racemic) [compound 84]", "values": [{"measurement": "C. albicans (MIC)", "setting": "[1]; Table 23, 35° C. for 24 hr", "result": 5, "unit": "ng/mL"}, {"measurement": "A. fumigatus (MIC)", "setting": "[2]; Table 23, 35° C. for 48 hr", "result": 5, "unit": "ng/mL"}]}, {"molecule": "CO/N=C/c1cnc(C2CS/C(=C(/C#N)n3cncn3)S2)c(F)c1", "note": "(centres unmarked) [compound 18]", "values": [{"measurement": "minimum inhibitory concentration against various fungi (MIC) C. albicans", "setting": "[1]", "result": 50, "unit": "ng/mL"}, {"measurement": "minimum inhibitory concentration against various fungi (MIC) A. fumigatus", "setting": "[2]", "result": 10, "unit": "ng/mL"}]}, {"molecule": "N#C/C(=C1/SCC(c2ncc(NC(=O)OCCCl)cc2Cl)S1)n1ccnc1", "note": "(centres unmarked) [compound 66]", "values": [{"measurement": "C. albicans (MIC)", "setting": "[1]; Table 23, 35° C. for 24 hr", "result": 5, "unit": "ng/mL"}, {"measurement": "A. fumigatus (MIC)", "setting": "[2]; Table 23, 35° C. for 48 hr", "result": 10, "unit": "ng/mL"}]}, {"molecule": "N#C/C(=C1/SCC(c2ncc(COC3CCCCO3)cc2Cl)S1)n1ccnc1", "note": "(centres unmarked) [compound 28, (E)-2-[4-(3-chloro-5-{[(tetrahydro-2H-pyran-2-yl)oxy]methyl}pyridin-2-yl)-1,3-dithiolan-2-ylidene]-2-(1H-imidazol-1-yl)acetonitrile]", "values": [{"measurement": "C. albicans (MIC)", "setting": "[1]; Table 23, 35° C. for 24 hr", "result": 10, "unit": "ng/mL"}, {"measurement": "A. fumigatus (MIC)", "setting": "[2]; Table 23, 35° C. for 48 hr", "result": 10, "unit": "ng/mL"}]}, {"molecule": "N#C/C(=C1/SCC(c2ncc(NC(=O)OCc3cccc(F)c3)cc2Cl)S1)n1cncn1", "note": "(racemic) [compound 98]", "values": [{"measurement": "C. albicans (MIC)", "setting": "[1]; Table 23, 35° C. for 24 hr", "result": 2.5, "unit": "ng/mL"}, {"measurement": "A. fumigatus (MIC)", "setting": "[2]; Table 23, 35° C. for 48 hr", "result": 5, "unit": "ng/mL"}]}, {"molecule": "COC(=O)Nc1cnc([C@@H]2CS/C(=C(/C#N)n3cncn3)S2)c(Cl)c1", "note": "[compound 9]", "values": [{"measurement": "minimum inhibitory concentration against various fungi (MIC) C. albicans", "setting": "[1]", "result": 13, "unit": "ng/mL"}, {"measurement": "minimum inhibitory concentration against various fungi (MIC) A. fumigatus", "setting": "[2]", "result": 5, "unit": "ng/mL"}]}, {"molecule": "CC(C)CON=Cc1cnc(C2CSC(=C(C#N)n3cncn3)S2)c(Cl)c1", "note": "(racemic) [compound 143]", "values": [{"measurement": "C. albicans (MIC)", "setting": "[1]; Table 24, 35° C. for 24 hr", "result": 2.5, "unit": "ng/mL"}, {"measurement": "A. fumigatus (MIC)", "setting": "[2]; Table 24, 35° C. for 48 hr", "result": 5, "unit": "ng/mL"}]}, {"molecule": "CC(C)COC(=O)Nc1cnc(C2CS/C(=C(/C#N)n3cncn3)S2)c(Cl)c1", "note": "(racemic) [compound 83]", "values": [{"measurement": "C. albicans (MIC)", "setting": "[1]; Table 23, 35° C. for 24 hr", "result": 5, "unit": "ng/mL"}, {"measurement": "A. fumigatus (MIC)", "setting": "[2]; Table 23, 35° C. for 48 hr", "result": 10, "unit": "ng/mL"}]}, {"molecule": "N#C/C(=C1/SCC(c2ncc(NC(=O)OCC3CC3(Cl)Cl)cc2Cl)S1)n1cncn1", "note": "(racemic) [compound 151]", "values": [{"measurement": "C. albicans (MIC)", "setting": "[1]; Table 25, 35° C. for 24 hr", "result": 2.5, "unit": "ng/mL"}, {"measurement": "A. fumigatus (MIC)", "setting": "[2]; Table 25, 35° C. for 48 hr", "result": 10, "unit": "ng/mL"}]}, {"molecule": "N#C/C(=C1/SCC(c2ncc(NC(=O)OCc3ccccc3)cc2Cl)S1)n1cncn1", "note": "(centres unmarked) [compound 14]", "values": [{"measurement": "minimum inhibitory concentration against various fungi (MIC) C. albicans", "setting": "[1]", "result": 1.3, "unit": "ng/mL"}, {"measurement": "minimum inhibitory concentration against various fungi (MIC) A. fumigatus", "setting": "[2]", "result": 5, "unit": "ng/mL"}]}, {"molecule": "N#C/C(=C1/SCC(c2ncc(NC(=O)OCC3CC(F)(F)C3)cc2Cl)S1)n1cncn1", "note": "(racemic) [compound 107]", "values": [{"measurement": "C. albicans (MIC)", "setting": "[1]; Table 23, 35° C. for 24 hr", "result": 5, "unit": "ng/mL"}, {"measurement": "A. fumigatus (MIC)", "setting": "[2]; Table 23, 35° C. for 48 hr", "result": 10, "unit": "ng/mL"}]}, {"molecule": "N#C/C(=C1/SC[C@@H](c2ncc(NC(=O)OCC3CC3)cc2Cl)S1)n1cncn1", "note": "[compound 92]", "values": [{"measurement": "C. albicans (MIC)", "setting": "[1]; Table 23, 35° C. for 24 hr", "result": 0.63, "unit": "ng/mL"}, {"measurement": "A. fumigatus (MIC)", "setting": "[2]; Table 23, 35° C. for 48 hr", "result": 2.5, "unit": "ng/mL"}]}, {"molecule": "N#CC(=C1SCC(c2ncc(C=NOCC3CC3)cc2Cl)S1)n1cncn1", "note": "(racemic) [compound 139]", "values": [{"measurement": "C. albicans (MIC)", "setting": "[1]; Table 24, 35° C. for 24 hr", "result": 1.25, "unit": "ng/mL"}, {"measurement": "A. fumigatus (MIC)", "setting": "[2]; Table 24, 35° C. for 48 hr", "result": 2.5, "unit": "ng/mL"}]}, {"molecule": "N#C/C(=C1/SCC(c2ncc(NC(=O)OCC3CC3(F)F)cc2F)S1)n1cncn1", "note": "(racemic) [compound 128]", "values": [{"measurement": "C. albicans (MIC)", "setting": "[1]; Table 24, 35° C. for 24 hr", "result": 10, "unit": "ng/mL"}, {"measurement": "A. fumigatus (MIC)", "setting": "[2]; Table 24, 35° C. for 48 hr", "result": 10, "unit": "ng/mL"}]}, {"molecule": "CCOC(=O)Nc1cnc([C@@H]2CS/C(=C(/C#N)n3cncn3)S2)c(Cl)c1", "note": "[compound 79]", "values": [{"measurement": "C. albicans (MIC)", "setting": "[1]; Table 23, 35° C. for 24 hr", "result": 5, "unit": "ng/mL"}, {"measurement": "A. fumigatus (MIC)", "setting": "[2]; Table 23, 35° C. for 48 hr", "result": 5, "unit": "ng/mL"}]}, {"molecule": "N#C/C(=C1/SC[C@@H](c2ncc(NC(=O)OCc3ccccc3)cc2Cl)S1)n1cncn1", "note": "[compound 100]", "values": [{"measurement": "C. albicans (MIC)", "setting": "[1]; Table 23, 35° C. for 24 hr", "result": 0.63, "unit": "ng/mL"}, {"measurement": "A. fumigatus (MIC)", "setting": "[2]; Table 23, 35° C. for 48 hr", "result": 2.5, "unit": "ng/mL"}]}, {"molecule": "N#C/C(=C1/SCC(c2ncc(NC(=O)OCc3ncc(F)cc3F)cc2Cl)S1)n1cncn1", "note": "(racemic) [compound 75]", "values": [{"measurement": "C. albicans (MIC)", "setting": "[1]; Table 23, 35° C. for 24 hr", "result": 10, "unit": "ng/mL"}, {"measurement": "A. fumigatus (MIC)", "setting": "[2]; Table 23, 35° C. for 48 hr", "result": 10, "unit": "ng/mL"}]}, {"molecule": "N#C/C(=C1/SC[C@@H](c2ncc(NC(=O)OCC3(F)CC3)cc2Cl)S1)n1cncn1", "note": "[compound 155]", "values": [{"measurement": "C. albicans (MIC)", "setting": "[1]; Table 25, 35° C. for 24 hr", "result": 2.5, "unit": "ng/mL"}, {"measurement": "A. fumigatus (MIC)", "setting": "[2]; Table 25, 35° C. for 48 hr", "result": 10, "unit": "ng/mL"}]}]}
